One experiment addresses AM2 S31N (serine→asparagine mutation at residue 31 in the M2 protein) (Influenza A virus, UniProt P0DOF5, S31N). The format is cell-based, influenza virus A/Udorn/72.
Details: not given
With `Cc1ccc(CNC23CC4CC(CC(C4)C2)C3)cc1` [Example 8a, N-(4-Methylbenzyl)adamantan-1-amine], the “S31N OOcyte Inhibition at 100 uM (%)” value is “B (key: (A)=31-95%; (B)=0-30%)”.
The same measure, in the same setting: next, `c1cc(C2CC2)ccc1CNC12CC3CC(CC(C3)C1)C2` [Example 9a, N-(4-Cyclopropylbenzyl)adamantan-1-amine]: “A (key: (A)=31-95%; (B)=0-30%)”; `c1cn(-c2ccc(CNC34CC5CC(CC(C5)C3)C4)cc2)cn1` [Example 36a, N-(4-(1H-imidazol-1-yl)benzyl)adamantan-1-amine]: 26.9%.

Staying with this experiment, now noted: pH 5.5.
For the molecule `Clc1ccc(CNC23CC4CC(CC(C4)C2)C3)cc1` [Example 1b, N-(4-Chlorobenzyl)adamantan-1-amine], the “S31N OOcyte Inhibition at 100 uM (%)” value is “A (key: (A)=31-95%; (B)=0-30%)”.
Same read-out and setting: next, `Oc1cc(I)ccc1CNC12CC3CC(CC(C3)C1)C2` [Example 2b]: “A (key: (A)=31-95%; (B)=0-30%)”; `CC(NC12CC3CC(CC(C3)C1)C2)c1ccc(C(C)(C)C)cc1` (stereo not shown) [Example 3b, N-(1-(4-(tert-butyl)phenyl)ethyl)adamantan-1-amine]: “B (key: (A)=31-95%; (B)=0-30%)”; `CC(NC12CC3CC(CC(C3)C1)C2)c1ccc(-c2ccccc2)cc1` (stereo not shown) [Example 4b, N-(1-([1,1′-biphenyl]-4-yl)ethyl)adamantan-1-amine]: “B (key: (A)=31-95%; (B)=0-30%)”.
Still for that read-out and setting: next, `Cc1csc(-c2ccc(CNC34CC5CC(CC(C5)C3)C4)cc2)c1` [Example 5b, N-(4-(4-Methylthiophen-2-yl)benzyl)adamantan-1-amine]: “A (key: (A)=31-95%; (B)=0-30%)”; `Oc1cc(F)ccc1CNC12CC3CC(CC(C3)C1)C2` [Example 6b]: “A (key: (A)=31-95%; (B)=0-30%)”; `Oc1cc(-c2ccco2)ccc1CNC12CC3CC(CC(C3)C1)C2` [Example 7b, 2-((-Adamantan-1-ylamino)methyl)-5-(furan-2-yl)phenol]: “A (key: (A)=31-95%; (B)=0-30%)”.
Same read-out and setting: next, `Oc1cc(-c2ccsc2)ccc1CNC12CC3CC(CC(C3)C1)C2` [Example 8b]: “A (key: (A)=31-95%; (B)=0-30%)”.
With `Oc1cc(Cl)ccc1CNC12CC3CC(CC(C3)C1)C2` [Example 9b, 2-((-Adamantan-1-ylamino)methyl)-5-chlorophenol], the “S31N OOcyte Inhibition at 100 uM (%)” value was “A (key: (A)=31-95%; (B)=0-30%)”.
Still for that read-out and setting: next, `Clc1nc(CNC23CC4CC(CC(C4)C2)C3)ns1` [Example 10b, N-((5-chloro-1,2,4-thiadiazol-3-yl)methyl)adamantan-1-amine]: “A (key: (A)=31-95%; (B)=0-30%)”; `c1csc(-c2nc(CNC34CC5CC(CC(C5)C3)C4)cs2)c1` [Example 11b, N-((2-(thiophen-2-yl)thiazol-4-yl)methyl)adamantan-1-amine]: “A (key: (A)=31-95%; (B)=0-30%)”.
On the same count and under the same terms, next, `Cc1nc(CNC23CC4CC(CC(C4)C2)C3)cs1` [Example 12b, N-((2-methylthiazol-4-yl)methyl)adamantan-1-amine]: “A (key: (A)=31-95%; (B)=0-30%)”; `Clc1ncc(CNC23CC4CC(CC(C4)C2)C3)s1` [Example 13b, N-((2-chlorothiazol-5-yl)methyl)adamantan-1-amine]: “B (key: (A)=31-95%; (B)=0-30%)”; `FC(F)(F)c1nnc(CNC23CC4CC(CC(C4)C2)C3)o1` [Example 14b, N-((5-(trifluoromethyl)-1,3,4-oxadiazol-2-yl)methyl)adamantan-1-amine]: “A (key: (A)=31-95%; (B)=0-30%)”.
As for `COc1ccccc1-c1nc(CNC23CC4CC(CC(C4)C2)C3)no1` [Example 15b, N-((5-(2-methoxyphenyl)-1,2,4-oxadiazol-3-yl)methyl)adamantan-1-amine], the “S31N OOcyte Inhibition at 100 uM (%)” value is recorded as “A (key: (A)=31-95%; (B)=0-30%)”.
Still for that read-out and setting: in the case of `Cc1ncc(CNC23CC4CC(CC(C4)C2)C3)s1` [Example 16b, N-((2-methylthiazol-5-yl)methyl)adamantan-1-amine] it was “B (key: (A)=31-95%; (B)=0-30%)”; in that of `Cc1nnc(CNC23CC4CC(CC(C4)C2)C3)o1` [Example 17b, N-((5-methyl-1,3,4-oxadiazol-2-yl)methyl)adamantan-1-amine], “A (key: (A)=31-95%; (B)=0-30%)”.
Consider `Cn1cc(CNC23CC4CC(CC(C4)C2)C3)nn1` [Example 18b, N-((1-methyl-1H-1,2,3-triazol-4-yl)methyl)adamantan-1-amine], for which the “S31N OOcyte Inhibition at 100 uM (%)” value is recorded as “B (key: (A)=31-95%; (B)=0-30%)”.
On the same count and under the same terms, in the case of `Nc1ncc(CNC23CC4CC(CC(C4)C2)C3)s1` [Example 19b] it was “B (key: (A)=31-95%; (B)=0-30%)”; in that of `CC(C)(C)c1ncc(CNC23CC4CC(CC(C4)C2)C3)s1` [Example 20b, N-((2-(tert-butyl)thiazol-5-yl)methyl)adamantan-1-amine], “A (key: (A)=31-95%; (B)=0-30%)”.
Still for that read-out and setting: in the case of `C1COC(c2nc(CNC34CC5CC(CC(C5)C3)C4)no2)C1` (stereo not shown) [Example 21b, N-((5-(tetrahydrofuran-2-yl)-1,2,4-oxadiazol-3-yl)methyl)adamantan-1-amine] it was “A (key: (A)=31-95%; (B)=0-30%)”.
In the case of `CC(C)Cc1nc(CNC23CC4CC(CC(C4)C2)C3)no1` [Example 22b, N-((5-isobutyl-1,2,4-oxadiazol-3-yl)methyl)adamantan-1-amine], the “S31N OOcyte Inhibition at 100 uM (%)” value is given as “A (key: (A)=31-95%; (B)=0-30%)”.
The same measure, in the same setting: in the case of `COCc1nc(CNC23CC4CC(CC(C4)C2)C3)no1` [Example 23b, N-((5-(methoxymethyl)-1,2,4-oxadiazol-3-yl)methyl)adamantan-1-amine] it was “A (key: (A)=31-95%; (B)=0-30%)”; in that of `C1CCC(c2nc(CNC34CC5CC(CC(C5)C3)C4)no2)CC1` [Example 24b], “A (key: (A)=31-95%; (B)=0-30%)”; in that of `Cc1noc(C)c1-c1nc(CNC23CC4CC(CC(C4)C2)C3)no1` [Example 25b, N-((5-(3,5-dimethylisoxazol-4-yl)-1,2,4-oxadiazol-3-yl)methyl)adamantan-1-amine], “B (key: (A)=31-95%; (B)=0-30%)”.
Still for that read-out and setting: in the case of `CCCc1cc(CNC23CC4CC(CC(C4)C2)C3)no1` [Example 26b, N-((5-propylisoxazol-3-yl)methyl)adamantan-1-amine] it was “A (key: (A)=31-95%; (B)=0-30%)”; in that of `CC(C)c1cc(CNC23CC4CC(CC(C4)C2)C3)no1` [Example 27b, N-((5-isopropylisoxazol-3-yl)methyl)adamantan-1-amine], “A (key: (A)=31-95%; (B)=0-30%)”; in that of `COc1ccc(Cc2nc(CNC34CC5CC(CC(C5)C3)C4)no2)cc1OC` [Example 28b, N-((5-(3,4-dimethoxybenzyl)-1,2,4-oxadiazol-3-yl)methyl)adamantan-1-amine], “A (key: (A)=31-95%; (B)=0-30%)”.
Still for that read-out and setting: in the case of `CCCc1nc(CNC23CC4CC(CC(C4)C2)C3)no1` [Example 29b, N-((5-propyl-1,2,4-oxadiazol-3-yl)methyl)adamantan-1-amine] it was “A (key: (A)=31-95%; (B)=0-30%)”; in that of `COc1ccccc1-c1noc(CNC23CC4CC(CC(C4)C2)C3)n1` [Example 30b, N-((3-(2-methoxyphenyl)-1,2,4-oxadiazol-5-yl)methyl)adamantan-1-amine], “A (key: (A)=31-95%; (B)=0-30%)”.
For the molecule `Clc1ccccc1-c1nc(CNC23CC4CC(CC(C4)C2)C3)no1` [Example 31b, N-((5-(2-chlorophenyl)-1,2,4-oxadiazol-3-yl)methyl)adamantan-1-amine], the “S31N OOcyte Inhibition at 100 uM (%)” value is “A (key: (A)=31-95%; (B)=0-30%)”.
Take `c1c(CNC23CC4CC(CC(C4)C2)C3)noc1C1CCCCC1` [Example 32b, N-((5-cyclohexylisoxazol-3-yl)methyl)adamantan-1-amine]: the “S31N OOcyte Inhibition at 100 uM (%)” value was “A (key: (A)=31-95%; (B)=0-30%)”.
Regarding `Fc1cc(F)cc(-c2cc(CNC34CC5CC(CC(C5)C3)C4)no2)c1` [Example 33b, N-((5-(3,5-difluorophenyl)isoxazol-3-yl)methyl)adamantan-1-amine], the “S31N OOcyte Inhibition at 100 uM (%)” value was “A (key: (A)=31-95%; (B)=0-30%)”.
On the same count and under the same terms, in the case of `COc1ccc(-c2nc(CNC34CC5CC(CC(C5)C3)C4)no2)c(OC)c1` [Example 34b, N-((5-(2,4-dimethoxyphenyl)-1,2,4-oxadiazol-3-yl)methyl)adamantan-1-amine] it was “A (key: (A)=31-95%; (B)=0-30%)”; in that of `COc1ccc(-c2noc(CNC34CC5CC(CC(C5)C3)C4)n2)cc1OC` [Example 35b, N-((3-(3,4-dimethoxyphenyl)-1,2,4-oxadiazol-5-yl)methyl)adamantan-1-amine], “A (key: (A)=31-95%; (B)=0-30%)”; in that of `FC(F)(F)Oc1ccc(-c2cc(CNC34CC5CC(CC(C5)C3)C4)no2)cc1` [Example 36b, N-((5-(4-(trifluoromethoxy)phenyl)isoxazol-3-yl)methyl)adamantan-1-amine], “B (key: (A)=31-95%; (B)=0-30%)”.
The same measure, in the same setting: in the case of `CSc1ccc(-c2cc(CNC34CC5CC(CC(C5)C3)C4)no2)cc1` [Example 37b, N-((5-(4-(methylthio)phenyl)isoxazol-3-yl)methyl)adamantan-1-amine] it was “A (key: (A)=31-95%; (B)=0-30%)”.
On the same count and under the same terms, in the case of `Fc1cccc(F)c1-c1cc(CNC23CC4CC(CC(C4)C2)C3)no1` [Example 38b, N-((5-(2,6-difluorophenyl)isoxazol-3-yl)methyl)adamantan-1-amine] it was “A (key: (A)=31-95%; (B)=0-30%)”; in that of `COc1cccc(-c2cc(CNC34CC5CC(CC(C5)C3)C4)no2)c1` [Example 39b, N-((5-(3-methoxyphenyl)isoxazol-3-yl)methyl)adamantan-1-amine], “A (key: (A)=31-95%; (B)=0-30%)”.
Consider `CSc1ccc(-c2cc(CNCC34CC5CC(CC(C5)C3)C4)no2)cc1` [Example 40b, 1-((3r,5r,7r)-adamantan-1-yl)-N-((5-(4-(methylthio)phenyl)isoxazol-3-yl)methyl)methanamine], for which the “S31N OOcyte Inhibition at 100 uM (%)” value is reported as “A (key: (A)=31-95%; (B)=0-30%)”.

The record behind these values is patent publication US9884832B2 (priority 2011, dated 2018).
